# Numbering of substitutions follows the chain as printed.
# Columns and labels:
# [1] = molecular target: T1, AtPPO1 S305L G404A L479N (SEQ ID NO.137) (Arabidopsis thaliana, UniProt P55826, G404A/L479N/S305L); assay: fluorescent Protoporphyrinogen Oxidase assay, crude extract; assay type: biochemical; conditions: read-out: percentage inhibition
# T1 construct: made in house; host or cells: E. coli BL21 (DE3) hemG, crude extract
# T1 sequence (P55826 35-537 S305L/G404A/L479N): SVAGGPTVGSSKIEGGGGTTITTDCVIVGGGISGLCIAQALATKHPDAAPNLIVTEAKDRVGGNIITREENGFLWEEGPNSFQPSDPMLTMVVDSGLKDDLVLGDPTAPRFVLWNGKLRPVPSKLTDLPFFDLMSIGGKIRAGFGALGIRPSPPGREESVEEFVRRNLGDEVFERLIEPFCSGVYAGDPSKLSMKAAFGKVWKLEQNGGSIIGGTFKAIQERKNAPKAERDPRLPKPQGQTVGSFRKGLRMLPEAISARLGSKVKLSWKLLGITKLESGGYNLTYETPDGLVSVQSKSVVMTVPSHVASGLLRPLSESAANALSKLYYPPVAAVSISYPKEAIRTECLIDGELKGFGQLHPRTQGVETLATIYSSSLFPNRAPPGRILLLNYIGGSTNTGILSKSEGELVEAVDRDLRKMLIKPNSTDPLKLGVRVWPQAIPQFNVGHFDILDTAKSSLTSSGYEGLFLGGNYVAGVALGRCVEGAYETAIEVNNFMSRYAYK
# Method: (§1) A pET24 plasmid containing a DNA sequence encoding each identified variant mutant of AtPPO1 derived from Arabidopsis thaliana, codon-optimised for expression in E. coli, and under control of a T7 promoter, was synthesised by Twist Bioscience. This plasmid was expressed in E. coli BL21 (DE3) hemG with 50 μg/mL kanamycin and 25 μg/mL chloramphenicol selection. Overnight cultures grown at 37° C. were used to inoculate 150 ml AIM (AIM-Terrific Broth Base including Trace elements, Formedium) in 500 ml shake flasks at a ratio of 1:100. Cultures were grown at 37° C., 200 rpm for 3 hours and then overnight at 26° C. Cells were harvested by 4° C. centrifugation for 20 minutes at 600 rpm. Cells were stored at −80° C. until extraction. 0.5-1 g of cell pellet from was thawed and resuspended in ratio of 1:1 in lysis buffer (20 mM Tris pH8, 500 mM sodium chloride, 10% glycerol, 1× complete Protease EDTA-free Inhibitor Tablet (Roche)). The resuspension was sonicated at 50% using 10-20 cycles of 10 seconds, 20 seconds off. After sonication Triton X-100 was added to the lysates at a final concentration of 0.5%. The lysates were centrifuged at 13.00 rpm for 10 min at 4° C. The crude extracts (i.e, supernatants) were stored at −80° C. Protein concentration was measured and calculated using the absorbance at 280 nm. Extracts were diluted 1 in 4 and 10 uL was analysed by SDS PAGE.
# (§2) Variant crude extracts were assayed in a fluorescent Protoporphyrinogen Oxidase assay in black 384 well plates with a clear bottom. The total volume of the reaction mixture was 100 ul and contained 100 mM K2HPO4 pH7.2, 1 mM Na2EDTA, 5 mM DTT, 20% glycerol (v/v), 0.025% Tween 20 (v/v). Reactions were started with addition of 1 uM protoporphyrinogen IX final assay concentration. Fluorescence was monitored over 30 min using a Tecan plate reader with an excitation wavelength of 405 nm, emission wavelength of 635 nm, gain of 90 and 15 flashes. 10 ul of 3-fold serial dilution of crude extract in 100 mM K2HPO4 pH7.2, 1 mM Na2EDTA, 5 mM DTT, 20% glycerol (v/v), 0.05% Tween 20 (v/v) was tested in the assay against 1% DMSO and 100 ppm herbicide B to determine the correct amount of crude extract to add to the assay to observe activity. 10 ul of the appropriate crude extract dilution was then tested in the fluorescent Protoporphyrinogen Oxidase assay against DMSO and 10-fold dose response of each compound (herbicides A to E) with a top rate of 100 ppm.
# (§3) The percentage inhibition was calculated as the activity in the presence of one of four concentrations of each herbicide compound A to E (note that the compounds labelled as A to E are identified hereinabove in the relevant section of the description) as a percentage of the enzyme activity in DMSO (Table 5).
# [2] = molecular target: T2, AtPPO1 S305L L361D V365M (SEQ ID NO.133) (Arabidopsis thaliana, UniProt P55826, S305L/V365M/Y361D); assay: as above; assay type: biochemical; conditions: read-out: percentage inhibition
# T2 sequence (P55826 35-537 S305L/Y361D/V365M): T1 sequence (P55826 35-537 S305L/G404A/L479N) with Y327D, V331M, A370G, N445L
# Method: as §1, §2, §3
Compound,inhibition at 0.1 ppm [1],inhibition at 1 ppm [1],inhibition at 10 ppm [1],inhibition at 100 ppm [1],inhibition at 0.1 ppm [2],inhibition at 1 ppm [2],inhibition at 10 ppm [2],inhibition at 100 ppm [2]
"CC(C)N(C)S(=O)(=O)NC(=O)c1cc(-n2c(=O)cc(C(F)(F)F)n(C)c2=O)c(F)cc1Cl [Herbicide E, saflufenacil]",22%,66%,100%,96%,0%,10%,76%,88%
"C#CCN1C(=O)C(F)(F)Oc2cc(F)c(-n3c(=O)n(C)c(=S)n(C)c3=O)cc21 [Herbicide B, trifludimoxazin]",77%,98%,100%,100%,96%,100%,100%,100%
"CCOC(=O)COc1ncccc1Oc1cc(-n2c(=O)cc(C(F)(F)F)n(C)c2=O)c(F)cc1Cl [Herbicide A, epyrifenacil]",24%,93%,100%,100%,9%,53%,84%,100%
"CCOC(=O)C1(C)CC(c2cc(-n3c(=O)cc(C(F)(F)F)n(C)c3=O)c(F)cc2Cl)=NO1 (stereo not shown) [Herbicide C, 3-(2-chloro-4-fluoro-5-(3-methyl-2,6-dioxo-4-trifluoromethyl-3,6-dihydropyrimidin-1(2H)-yl)phenyl)-5-methyl-4,5-dihydroisoxazole-5-carboxylic acid ethyl ester]",26%,90%,100%,100%,30%,56%,92%,100%
"CCOC(=O)[C@]1(C)CC(c2cc(-n3c(=O)n(C)c(=S)n(C)c3=O)c(F)cc2Cl)=NO1 [Herbicide D, ethyl (5S)-3-[2-chloro-5-(3,5-dimethyl-2,6-dioxo-4-thioxo-1,3,5-triazinan-1-yl)-4-fluoro-phenyl]-5-methyl-4H-isoxazole-5-carboxylate]",12%,58%,98%,100%,37%,87%,99%,100%

# Reference: patent publication US20260297542A1, “HERBICIDE RESISTANT PLANTS” (SYNGENTA CROP PROTECTION AG, priority 2023, published 2026)
